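These data come from cells grown in 96-well plates and exposed to compound for 48 hours at five concentrations. TGI: total growth inhibition.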
Assays:
Test in all cases: NCI tumour cell line growth inhibition, 48 h
786-0 renal = tested on: 786-0 renal
A498 renal = tested on: A498 renal
A549 NSCLC = tested on: A549 NSCLC
ACHN renal = tested on: ACHN renal
BT-549 breast = tested on: BT-549 breast
CAKI-1 renal = tested on: CAKI-1 renal
CCRF-CEM leukemia = tested on: CCRF-CEM leukemia
COLO 205 colon = tested on: COLO 205 colon
DU-145 prostate = tested on: DU-145 prostate
HCT-116 colon = tested on: HCT-116 colon
HCT-15 colon = tested on: HCT-15 colon
HL-60(TB) leukemia = tested on: HL-60(TB) leukemia
HOP-62 NSCLC = tested on: HOP-62 NSCLC
HOP-92 NSCLC = tested on: HOP-92 NSCLC
HS 578T breast = tested on: HS 578T breast
HT29 colon = tested on: HT29 colon
IGROV1 ovarian = tested on: IGROV1 ovarian
K-562 leukemia = tested on: K-562 leukemia
KM12 colon = tested on: KM12 colon
LOX IMVI melanoma = tested on: LOX IMVI melanoma
M14 melanoma = tested on: M14 melanoma
MALME-3M melanoma = tested on: MALME-3M melanoma
MCF7 breast = tested on: MCF7 breast
MDA-MB-231 breast = tested on: MDA-MB-231 breast
MDA-MB-435 = tested on: MDA-MB-435
MDA-N = tested on: MDA-N
MOLT-4 leukemia = tested on: MOLT-4 leukemia
NCI-H226 lung = tested on: NCI-H226 lung
NCI-H23 lung = tested on: NCI-H23 lung
NCI-H460 lung = tested on: NCI-H460 lung
NCI-H522 lung = tested on: NCI-H522 lung
NCI/ADR-RES ovarian = tested on: NCI/ADR-RES ovarian
OVCAR-3 ovarian = tested on: OVCAR-3 ovarian
OVCAR-4 ovarian = tested on: OVCAR-4 ovarian
OVCAR-5 ovarian = tested on: OVCAR-5 ovarian
OVCAR-8 ovarian = tested on: OVCAR-8 ovarian
PC-3 prostate = tested on: PC-3 prostate
RPMI-8226 leukemia = tested on: RPMI-8226 leukemia
RXF 393 renal = tested on: RXF 393 renal
SF-268 CNS = tested on: SF-268 CNS
SF-295 CNS = tested on: SF-295 CNS
SF-539 CNS = tested on: SF-539 CNS
SK-MEL-2 melanoma = tested on: SK-MEL-2 melanoma
SK-MEL-28 melanoma = tested on: SK-MEL-28 melanoma
SK-MEL-5 melanoma = tested on: SK-MEL-5 melanoma
SK-OV-3 ovarian = tested on: SK-OV-3 ovarian
SN12C renal = tested on: SN12C renal
SNB-75 CNS = tested on: SNB-75 CNS
SR leukemia = tested on: SR leukemia
SW-620 colon = tested on: SW-620 colon
T-47D breast = tested on: T-47D breast
TK-10 renal = tested on: TK-10 renal
U251 CNS = tested on: U251 CNS
UACC-257 melanoma = tested on: UACC-257 melanoma
UACC-62 melanoma = tested on: UACC-62 melanoma
UO-31 renal = tested on: UO-31 renal
EKVX NSCLC = tested on: EKVX NSCLC
HCC-2998 colon = tested on: HCC-2998 colon
SNB-19 CNS = tested on: SNB-19 CNS

For `CC(=C/C=C/C=C(C)\C=C\C=C(\C)C(=O)O)/C=C/C=C(/C)C(=O)O`, the TGI (786-0 renal) was over 100 µM, the TGI (A498 renal) was over 100 µM and the TGI (A549 NSCLC) was over 100 µM. For the same compound, the TGI (ACHN renal) was over 100 µM, the TGI (BT-549 breast) was over 100 µM and the TGI (CAKI-1 renal) was over 100 µM. The TGI (CCRF-CEM leukemia) was over 100 µM, the TGI (COLO 205 colon) was over 100 µM and the TGI (DU-145 prostate) was over 100 µM. The TGI (HCT-116 colon) was over 100 µM, the TGI (HCT-15 colon) was over 100 µM and the TGI (HL-60(TB) leukemia) was over 100 µM. It also gave a TGI (HOP-62 NSCLC) of over 100 µM, a TGI (HOP-92 NSCLC) of over 100 µM and a TGI (HS 578T breast) of over 100 µM. It also gave a TGI (HT29 colon) of over 100 µM, a TGI (IGROV1 ovarian) of over 100 µM and a TGI (K-562 leukemia) of over 100 µM. The TGI (KM12 colon) was over 100 µM, the TGI (LOX IMVI melanoma) was over 100 µM and the TGI (M14 melanoma) was over 100 µM. The TGI (MALME-3M melanoma) was over 100 µM, the TGI (MCF7 breast) was over 100 µM and the TGI (MDA-MB-231 breast) was over 100 µM. The TGI (MDA-MB-435) was over 100 µM, the TGI (MDA-N) was over 100 µM and the TGI (MOLT-4 leukemia) was over 100 µM. The TGI (NCI-H226 lung) was over 100 µM, the TGI (NCI-H23 lung) was over 100 µM and the TGI (NCI-H460 lung) was over 100 µM. For the same compound, the TGI (NCI-H522 lung) was over 100 µM, the TGI (NCI/ADR-RES ovarian) was over 100 µM and the TGI (OVCAR-3 ovarian) was over 100 µM. The TGI (OVCAR-4 ovarian) was over 100 µM, the TGI (OVCAR-5 ovarian) was over 100 µM and the TGI (OVCAR-8 ovarian) was over 100 µM. It also gave a TGI (PC-3 prostate) of over 100 µM, a TGI (RPMI-8226 leukemia) of over 100 µM and a TGI (RXF 393 renal) of over 100 µM. The TGI (SF-268 CNS) was over 100 µM, the TGI (SF-295 CNS) was over 100 µM and the TGI (SF-539 CNS) was over 100 µM. For the same compound, the TGI (SK-MEL-2 melanoma) was over 100 µM, the TGI (SK-MEL-28 melanoma) was over 100 µM and the TGI (SK-MEL-5 melanoma) was over 100 µM. It also gave a TGI (SK-OV-3 ovarian) of over 100 µM, a TGI (SN12C renal) of over 100 µM and a TGI (SNB-75 CNS) of over 100 µM. It also gave a TGI (SR leukemia) of over 100 µM, a TGI (SW-620 colon) of over 100 µM and a TGI (T-47D breast) of over 100 µM. The TGI (TK-10 renal) was over 100 µM, the TGI (U251 CNS) was over 100 µM and the TGI (UACC-257 melanoma) was over 100 µM. For the same compound, the TGI (UACC-62 melanoma) was over 100 µM and the TGI (UO-31 renal) was over 100 µM.
`N#CC1C(=O)SC2c3ccccc3C(=O)c3ccccc3C12` (stereo not drawn) gave a TGI (786-0 renal) of over 10 µM, a TGI (A498 renal) of over 10 µM and a TGI (A549 NSCLC) of over 10 µM. It also gave a TGI (ACHN renal) of over 10 µM, a TGI (BT-549 breast) of over 10 µM and a TGI (CAKI-1 renal) of over 10 µM. The TGI (CCRF-CEM leukemia) was over 10 µM, the TGI (COLO 205 colon) was over 10 µM and the TGI (DU-145 prostate) was over 10 µM. For the same compound, the TGI (EKVX NSCLC) was over 10 µM, the TGI (HCC-2998 colon) was over 10 µM and the TGI (HCT-116 colon) was over 10 µM. For the same compound, the TGI (HCT-15 colon) was over 10 µM, the TGI (HL-60(TB) leukemia) was over 10 µM and the TGI (HOP-62 NSCLC) was over 10 µM. It also gave a TGI (HS 578T breast) of over 10 µM, a TGI (HT29 colon) of over 10 µM and a TGI (IGROV1 ovarian) of over 10 µM. For the same compound, the TGI (K-562 leukemia) was over 10 µM, the TGI (KM12 colon) was over 10 µM and the TGI (LOX IMVI melanoma) was over 10 µM. For the same compound, the TGI (M14 melanoma) was over 10 µM, the TGI (MALME-3M melanoma) was over 10 µM and the TGI (MCF7 breast) was over 10 µM. For the same compound, the TGI (MDA-MB-231 breast) was over 10 µM, the TGI (MDA-MB-435) was over 10 µM and the TGI (MDA-N) was over 10 µM. The TGI (MOLT-4 leukemia) was over 10 µM, the TGI (NCI-H226 lung) was over 10 µM and the TGI (NCI-H23 lung) was over 10 µM. The TGI (NCI-H460 lung) was over 10 µM, the TGI (NCI/ADR-RES ovarian) was over 10 µM and the TGI (OVCAR-3 ovarian) was over 10 µM. The TGI (OVCAR-4 ovarian) was over 10 µM, the TGI (OVCAR-5 ovarian) was over 10 µM and the TGI (OVCAR-8 ovarian) was over 10 µM. It also gave a TGI (PC-3 prostate) of over 10 µM, a TGI (RPMI-8226 leukemia) of over 10 µM and a TGI (RXF 393 renal) of over 10 µM. For the same compound, the TGI (SF-268 CNS) was over 10 µM, the TGI (SF-295 CNS) was over 10 µM and the TGI (SF-539 CNS) was over 10 µM. The TGI (SK-MEL-2 melanoma) was over 10 µM, the TGI (SK-MEL-28 melanoma) was over 10 µM and the TGI (SK-MEL-5 melanoma) was over 10 µM. The TGI (SK-OV-3 ovarian) was over 10 µM, the TGI (SN12C renal) was over 10 µM and the TGI (SNB-19 CNS) was over 10 µM. For the same compound, the TGI (SNB-75 CNS) was over 10 µM, the TGI (SR leukemia) was over 10 µM and the TGI (SW-620 colon) was over 10 µM. The TGI (T-47D breast) was over 10 µM, the TGI (TK-10 renal) was over 10 µM and the TGI (U251 CNS) was over 10 µM. For the same compound, the TGI (UACC-257 melanoma) was over 10 µM, the TGI (UACC-62 melanoma) was over 10 µM and the TGI (UO-31 renal) was over 10 µM.

Reference: PubChem BioAssay (NCI)
